# Data published in US10023615B2, “Efficient transport into white blood cells” (priority 2008, dated 2018).
# “Also recorded” adds a separate entry of the source. Ends that are not written are not given here.
# Test system: Aβ1-40 and Aβ1-42 levels
# Assay: Aβ1-40 and Aβ1-42 ELISA in brain homogenate fractions and CSF of hAPP Tg mice
# Format: in vivo, mouse
# Method: a) METHODS • i) Introduction • The study was designed to evaluate the efficacy of the test substance (XG-102, SEQ ID NO: 233) on behavioral, biochemical and histological markers using 5 months (±2 weeks) old female hAPP Tg mice. Therefore, mice were treated every two or three weeks up to 4 months and in the end of the treatment period behavior was evaluated in the Morris Water Maze. At sacrifice brain, CSF and blood were collected. Aβ40 and Aβ42 levels were determined in four different brain homogenate fractions as well as in CSF of Tg mice. Plaque load was quantified in the cortex and the hippocampus of 8 Tg animals per treatment group.
# iv) Treatment • […] female hAPP transgenic mice were treated with either 0.1 mg/kg b.w./every two weeks or 10 mg/kg b.w./every three weeks of the test substance XG-102 (SEQ ID NO: 233) in two different dosages (n=12/group) or treated with the vehicle (n=12) s.c. once every three weeks over four months.
# vi) Tissue Sampling • At the end of the treatment period, and following all behavioral testing, all remaining mice (n=28) were sacrificed. Therefore, all mice were sedated by standard inhalation anesthesia (Isofluran, Baxter) as described in SOP MET030. Cerebrospinal fluid (CSF) was obtained by blunt dissection and exposure of the foramen magnum. Upon exposure, a Pasteur pipette was inserted to the approximate depth of 0.3-1 mm into the foramen magnum. CSF was collected by suctioning and capillary action until flow fully ceases. Two aliquots of each sample were immediately frozen and kept at −80° C. until ready for further analysis with ELISA technique. After CSF sampling, each mouse was placed in dorsal recumbence, thorax was opened and a 26-gauge needle attached to a 1 cc syringe was inserted into the right cardiac ventricular chamber. Light suction was applied to the needle and blood was collected into EDTA and consequently used to obtain plasma. […]
# vii) Determination of Aβ1-40 and Aβ1-42 • In four different brain homogenate fractions of each Tg mouse as well as in CSF samples the Aβ1-40 and Aβ1-42 levels were evaluated with ELISA technique. […]
substance,measurement,setting,value
dqsrpvqpflnIttprkprpprrrqrrkkrg (DQSRPVQPFLNLTTPRKPRPPRRRQRRKKRG; not fully specified (some residues); printed as dqsrpvqpflnIttprkprpprrrqrrkkrg) [XG-102],Aβ1-42 levels in Triton X-100 fraction,0.1 mg/kg,a significant reduction compared to the vehicle group; also recorded: a decrease in the Triton X-100 fraction
same,CSF Aβ1-40 and Aβ1-42 levels,0.1 and 10 mg/kg,significantly decreased in CSF compared to vehicle group
same,brain homogenate Aβ1-40 levels,four brain homogenate fractions,did not affect brain homogenate Aβ1-40 levels
